“And” between values parts separate entries of the source, which are not always exact repeats. Equal entries are not always repeated. Structures can show the parent of a compound that is named as a salt. Where two headings read alike, the source gives them in different places.
Columns and labels:
[1] = tested on: LS174t human colon carcinoma; format: in vivo; settings: Day 23
Procedure: Methods for LS174t Human Colon Cancer Model
(§1) 1×10^5 to 1×10^6 tumor cells were injected into the subcutaneous region of the hind flank of female nu/nu mice (n=10). Tumor growth was monitored twice a week for 2-4 weeks by caliper measurement.
(§2) Tumors were grown to a volume of approximately 100 mm^3 prior to dosing.

NCI-H526 SCLC cells = assay: NCI-H526 small cell lung carcinoma subcutaneous xenograft model; format: in vivo, human (xenograft in athymic nu/nu mice); settings: dosing began day 18 after implantation
Procedure: Methods for NCI-H526-Human Small Cell Lung Carcinoma Model
1×10^5 to 1×10^6 tumor cells were injected into the subcutaneous region of the hind flank of female nu/nu mice (n=10). Tumor growth was monitored twice a week for 2-4 weeks by caliper measurements.
NCI-H526 SCLC cells were cultured using standard technique in RPMI 1640 supplemented with 10% fetal bovine serum, 2 mM glutamine, 1 mM sodium pyruvate (Life Technologies Inc., Gaithersburg, Md.), and maintained routinely in a humidified chamber at 37° C. and 5% carbon dioxide.
Cells to be implanted in mice were harvested from cell culture flasks during exponential growth, washed once with sterile phosphate-buffered saline (PBS), counted, and resuspended in PBS to a suitable concentration prior to implantation.
Nine to twelve week old female athymic nu/nu mice purchased from Charles River Laboratories (Wilmington, Mass.) were used.
Mice received subcutaneous injections into the hind flank on Day 0 with 5×10^6 NCI-H526 cells. Subcutaneous tumor-bearing athymic mice (250-300 mm^3 tumor volume) were treated either PO once daily with Compound 1 to the end of the study, intraperitoneally once daily with Cisplatin for the first 5 days, or a combination of the two. […] Tumor growth was measured twice weekly using Vernier calipers for the duration of the treatment. Tumor volumes were calculated as the product of length× width× height.

[2] = tested on: MX-1 human breast carcinoma; format: in vivo
From the text: Methods for MX1 Human Breast Cancer Model
Mice/Husbandry: Female nu/nu mice (Harlan), 13 weeks of age (at pair-match; Day 1), were fed ad libitum water and an irradiated standard rodent diet. Mice were housed in static microisolators on a 12-hour light cycle. The animal care and use program specifically complies with recommendations of the Guide for Care and Use of Laboratory Animals with respect to restraint, husbandry, surgical procedures, feed and fluid regulation, and veterinary care is AAALAC accredited.
Tumor Implantation: Mice were implanted subcutaneously with 1 mm^3 MX-1 human breast carcinoma fragments in the flank. Tumors were monitored initially twice weekly, and then daily as the neoplasms reached the desired size, approximately 100 mg. […] Estimated tumor weight was calculated using the formula:
Tumor Weight(mg)=w^2×L divided by 2
where w=width and L=length in mm of a MX-1 carcinoma.
as §2
This example evaluates the effects of combined treatment of Compound 1 and Docetaxel on efficacy and toxicity in a human breast cancer model. Tumors were grown to a volume of approximately 100 mm^3 prior to dosing.
This example evaluates the effects of combined treatment of Compound 1 and 5-FU on efficacy and toxicity in a human breast cancer model
as §2
This example evaluates the effects of combined treatment of Compound 1 and Doxorubicin Hydrochloride on efficacy and toxicity in a human breast cancer model.
Tumors were grown to a volume of approximately 100 mm^3 prior to dosing. […] (see FIG. 6).

[3] = tested on: HT-29 human colon carcinoma; format: in vivo; settings: Compound 1 20 mg/kg PO QD to end, monotherapy, Day 38
Procedure: Methods for HT-29 Human Colon Cancer Model
as §1, §2

MDA-MB-435 tumor cells = assay: MDA-MB-435 orthotopic human breast carcinoma bone marrow colonization model (survival); format: in vivo, human (xenograft in nu/nu mice); settings: vehicle 46 days
Procedure: Methods for the MDA-MB-435 Human Breast Cancer Model
1×10^5 MDA-MB-435 tumor cells were injected into the left cardiac ventricle of female nu/nu mice (n=10). Mice were monitored for weight loss (>20%) and hind limb paralysis as an indicator of bone marrow colonization.
This example evaluates the effects of combined treatment of Compound 1 and Docetaxel on efficacy and toxicity in a human breast cancer model. Efficacy is indicated by improved survival, which, in turn, is indicated by hind-limb paralysis or weight loss (>20%) due to bone marrow colonization of tumor cells.
Tumor cells were injected into the mammary fat pad of female nu/nu mice and mice were monitored for weight loss (>20%) and hind limb paralysis as an indicator of bone marrow colonization of tumor cells.
Tumor cells were injected into the left cardiac ventricle of female nu/nu mice and mice were monitored for weight loss (>20%) and hind limb paralysis as an indicator of bone marrow colonization

CCc1c2c(nc3ccc(OC(=O)N4CCC(N5CCCCC5)CC4)cc13)-c1cc3c(c(=O)n1C2)COC(=O)[C@]3(O)CC [CPT-11, Irinotecan, reference compound] was tested, and the “% Inhibition” value ([1]; CPT-11 100 mg/kg IP QWK x 3, monotherapy, 100 mg/kg) was 64% and 63.6%.
For N.N.[Cl][Pt][Cl] [Cisplatin, reference compound], the “Day tumor reached 900 mm^3” value (NCI-H526 SCLC cells; Cisplatin 1.5 mg/kg IP QD x 5, monotherapy) was 48 days.
In the case of CCN(CC)CCNC(=O)c1c(C)[nH]c(/C=C2\C(=O)Nc3ccc(F)cc32)c1C [Compound 1, 5-(5-Fluoro-2-oxo-1,2-dihydroindol-3-ylidenemethyl)-2,4-dimethyl-1H-pyrrole-3-carboxylic acid(2-diethylamino-ethyl)amide], the “% Inhibition” value ([1]; Compound 1 40 mg/kg PO QD to end, monotherapy, 40 mg/kg) is reported as 68% and 67.9%, the “% Inhibition” value ([2]; Biological Example 1, Compound 1 40 mg/kg PO QD to end, monotherapy, Day 20, 40 mg/kg) is reported as 52% and 53% and the “% Inhibition” value ([2]; Biological Example 2, Compound 1 40 mg/kg PO QD to end, monotherapy, Day 17) is reported as 63%. The “% Inhibition” value ([2]; Biological Example 3, Compound 1 40 mg/kg PO QD to end, monotherapy, Day 15) was 57%, the “% Inhibition” value ([2]; Biological Example 4, Compound 1 40 mg/kg PO QD to end, monotherapy, Day 14) was 62% and the “Day tumor reached 900 mm^3” value (NCI-H526 SCLC cells; Compound 1 40 mg/kg PO QD, monotherapy) was 41 days. For the same compound, the “% Inhibition” value [3] was 78% and 77.8% and the “Median Survival” value (MDA-MB-435 tumor cells; Compound 1 40 mg/kg PO QD to end, monotherapy) was 52 days.
In the case of O=c1[nH]cc(F)c(=O)[nH]1 [Compound 5-FU, 5-Fluorouracil], the “% Inhibition” value ([2]; Biological Example 3, 5-FU 100 mg/kg IV QWK x 3, monotherapy, Day 15) is reported as 45%.
In the case of CC(=O)O[C@@]12CO[C@@H]1C[C@H](O)[C@@]1(C)C(=O)[C@H](O)C3=C(C)[C@@H](OC(=O)[C@H](O)[C@@H](NC(=O)OC(C)(C)C)c4ccccc4)C[C@@](O)([C@@H](OC(=O)c4ccccc4)[C@H]21)C3(C)C [Docetaxel], the “% Inhibition” value ([2]; Biological Example 1, Docetaxel 10 mg/kg IV QWK x 3, monotherapy, Day 16) is reported as 60%, the “% Inhibition” value ([2]; Biological Example 1, Docetaxel 15 mg/kg IV QWK x 3, monotherapy, Day 16) is reported as 95% and the “% Inhibition” value ([2]; Biological Example 2, Docetaxel 10 mg/kg IV QWK x 3, monotherapy, Day 14) is reported as 36%. For the same compound, the “% Inhibition” value ([2]; Biological Example 2, Docetaxel 15 mg/kg IV QWK x 3, monotherapy, Day 17) was 90% and the “Median Survival” value (MDA-MB-435 tumor cells; Docetaxel 5 mg/kg IP QWK x 3, monotherapy) was 52 days.
For COc1cccc2c1C(=O)c1c(O)c3c(c(O)c1C2=O)C[C@@](O)(C(=O)CO)C[C@@H]3O[C@H]1C[C@H](N)[C@H](O)[C@H](C)O1 [Doxorubicin Hydrochloride], the “% Inhibition” value ([2]; Biological Example 4, Doxorubicin Hydrochloride 4 mg/kg IV QOD x 3, monotherapy, Day 14) was 48%.

Reference: patent US20040152759A1, “Combination administration of an indolinone with a chemotherapeutic agent for cell proliferation disorders” (priority 2002, published 2004)
